Test results from paper PMC3005895 (Journal of Nucleic Acids, 2010).

Legend:
[1] = system: human lung cancer cell model; settings: cited from earlier work
E. coli SSB = system: T1, E. coli SSB; experiment: E. coli SSB binding assay (EMSA); settings: for effect on EcSSB binding to ssDNA (result in words): EMSA, preincubation with SMI
T1 construct: purchased Enzymatics, Beverly, MA
Protocol: E. coli SSB Binding Assay These EMSAs were performed similarly to those for the RPA constructs, with the following exceptions. Reactions contained 25 nM of 5′-[^32P]-labeled 3Pc3 ssDNA and 3.3 nM (assuming homotetramer formation) SSB protein (Enzymatics, Beverly, MA). Reactions (20 μL) were carried out in 20 mM HEPES, pH 7.5, 1 mM DTT, 0.01% NP-40, 100 mM NaCl and resolved by 6% native polyacrylamide gel electrophoresis at 25 mA for 2 hours. Gels were dried and quantified via phosphorimager analysis as described above.

[2] = target: T2, Schizosaccharomyces pombe Pot1(DBD) (Schizosaccharomyces pombe, UniProt O13988); experiment: Schizosaccharomyces pombe Pot1(DBD) binding assay (EMSA); settings: 15-mer ssDNA, three independent experiments, read-out: IC50 for inhibition of SpPot1(DBD) ssDNA binding
T2 construct: gift of Dr. Deborah Wuttke, University of Colorado, Boulder
T2 sequence (O13988 1-389): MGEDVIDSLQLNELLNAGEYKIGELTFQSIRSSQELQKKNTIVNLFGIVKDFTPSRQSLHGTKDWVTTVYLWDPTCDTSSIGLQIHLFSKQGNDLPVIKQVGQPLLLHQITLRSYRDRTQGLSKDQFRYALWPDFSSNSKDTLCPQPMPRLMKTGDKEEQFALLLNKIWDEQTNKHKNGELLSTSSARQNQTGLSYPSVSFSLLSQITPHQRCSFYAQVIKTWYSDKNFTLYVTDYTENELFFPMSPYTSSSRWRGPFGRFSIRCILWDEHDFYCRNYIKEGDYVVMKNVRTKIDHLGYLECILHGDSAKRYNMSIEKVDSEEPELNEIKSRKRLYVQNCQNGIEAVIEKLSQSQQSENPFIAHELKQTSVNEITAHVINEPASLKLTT
Protocol: Schizosaccharomyces pombe Pot1(DBD) Binding Assay EMSAs were performed as described above for EcSSB. Reactions contained 25 nM of 5′-[^32P]-labeled 15-mer ssDNA and 20 nM Pot1(DBD) protein (generously provided by Dr. Deborah Wuttke, University of Colorado, Boulder). Reactions (20 μL) were carried out in 20 mM HEPES, pH 7.5, 1 mM DTT, 0.01% NP-40, 100 mM NaCl, at room temperature, and resolved by 6% native polyacrylamide gel electrophoresis at 25 mA for 2 hours. Gels were dried and quantified via phosphorimager analysis as described above.

[3] = target: T3, full-length heterotrimeric RPA (Homo sapiens, UniProt P27694); settings: highest concentration tested (100 μM); cited from earlier work
T3 construct: Human full-length, untagged heterotrimeric RPA (RPA) was purified as previously described; made in house

RPA DBD-A/B [4] = target: T4, RPA DBD-A/B (Homo sapiens, UniProt P27694); experiment: EMSA of RPA DBD-A/B binding to ssDNA; settings: for inhibition of DBD-A/B DNA binding (result in words): 25–200 μM inhibitor
T4 construct: we subcloned amino acids 181–432 of human RPA p70; inferred from pET15b vector and nickel-NTA purification) (N); made in house; host or cells: E. coli BL21(DE3)
Protocol: DBD-A/B The sequence encoding the RPA p70 DNA-binding domains A and B was subcloned from the hrRPA plasmid (provided by Dr. Marc Wold, University of Iowa) into the pET15b (Novagen) vector, and the protein was expressed in BL21(DE3) cells (Stratagene) as previously described in [9]. Briefly, cells were grown to an OD600 of 0.8, induced with 0.5 mM isopropyl-1-thio-β-D-galactopyranoside (IPTG) at 37°C for 2-3 hours. Small-scale DBD-A/B preparations were obtained from 1 L cultures, and, following induction, cells were harvested by centrifugation at 700 × g for 30 minutes at 4°C. The pellets were suspended in Buffer A (20 mM Tris, pH 7.5, 10% glycerol, 500 mM NaCl, 10 mM β-mercaptoethanol (BME), and 1 μg/mL phenylmethanesulfonyl fluoride (PMSF), leupeptin, and pepstatin) at 1 mL/gram of cells. The cells were lysed by sonication and insoluble material sedimented at 15,000 × g for 30 minutes at 4°C. The supernatant was then loaded onto a 10 mL phosphocellulose column, equilibrated with Buffer A, and the flow-through material collected. Imidazole was added to the flow-through to a final concentration of 5 mM, which was then loaded onto a 2 mL nickel-NTA-agarose column. The column was then washed with Buffer A containing 50 mM imidazole after which protein was eluted from the column using a gradient from 50–500 mM imidazole. Fractions were analyzed for protein content using Bradford and SDS-PAGE analysis in addition to assessment of DNA binding activity as determined by anisotropy. Fractions containing the DBD-A/B protein were pooled and dialyzed overnight in Buffer B (1 mM HEPES, pH 7.2, 10 mM dithiothreitol (DTT), 50 mM NaCl, and 1 μg/mL PMSF, pepstatin, and leupeptin) and aliquots stored at −80°C.
(§1) RPA and DBD-A/B Binding EMSAs were performed as previously described in [16] using a purine rich ssDNA substrate (3Pc3). Briefly, reactions contained 12.5 nM 5′-[^32P]-labeled 3Pc3 ssDNA and the indicated concentrations of RPA or DBD-A/B. Protein was preincubated with the indicated concentration of SMI for 30 minutes at 37°C. DNA was then added and reactions incubated for additional 5 minutes at room temperature in a final reaction volume of 40 μL. Reactions were then resolved on a 6% native polyacrylamide gel and electrophoresed at 170 volts for 1 hour. Gels were dried and quantified via phosphorimager analysis and ImageQuant software (Molecular Dynamics).

[5] = target: T3, full-length heterotrimeric RPA; parameters: method as in earlier work; settings: prior observation; cited from earlier work
[6] = Cellular activity (data not shown); format: cell-based
RPA DBD-A/B [7] = target: T4, RPA DBD-A/B; experiment: Reversibility of inhibition: dialysis, then fluorescence polarization of DBD-A/B binding to F-dT12; settings: preincubation 30 minutes, dialysis overnight, FP with F-dT12
Protocol: Fluorescence polarization experiments were preformed as previously described in [23]. SMIs were diluted in H1 buffer (10 mM HEPES, pH 7.2, 1 mM DTT, 0.01% NP-40, and 100 mM NaCl), and the final DMSO concentration was kept below 1%.
(§2) To assess the reversibility of select SMIs, the indicated SMI was preincubated with RPA or the DBD-A/B construct for 30 minutes at room temperature. The resulting solution was dialyzed versus 500 mL H1 buffer at 4°C using 0.5 ml, 12,000 molecular weight cut-off dialysis cassettes (Pierce). The resulting protein was recovered and concentration determined by Bradford analysis. Analysis of DNA binding activity was performed either by EMSA or FP. In each series of experiments, there was no loss of DNA binding activity in vehicle control-treated protein.
Figure 3 Irreversible inhibition of RPA DBD-A/B-DNA-binding activity by CheSS19. (a) EMSA analysis of CheSS19 inhibition of RPA DBD-A/B. Assays were performed as described in the legend to Figure 2. […] (c) Quantification of the binding data presented in panels (a) and (b). (d) Fluorescence polarization analysis of CheSS19 inactivated RPA DBD-A/B. RPA DBD-A/B was preincubated with vehicle (1% DMSO) or CheSS19 (1 pmol in 1% DMSO) for 30 minutes at 37°C. […] The protein was recovered, and DNA-binding activity measured by FP analysis of binding to an F-dT12 substrate was performed as described in “Section 2”. […]

[8] = target: T3, full-length heterotrimeric RPA; experiment: Reversibility of inhibition: dialysis, then EMSA of full-length RPA; format: binding; settings: dialysis overnight, EMSA with 34-base DNA
Protocol: as §1
as §2, with “In each series of experiments, there was no loss of DNA binding activity in vehicle control-treated protein.” left out
Figure 5 Irreversible inactivation of full-length heterotrimeric RPA by MCI13E. […] DNA binding activity of the resulting protein was assessed by EMSA using a 5′-[^32P]-ss 34-base DNA as described in “Section 2.” Lanes 1–4 predialysis, lanes 5 and 6 postdialysis.

[9] = target: T3, full-length heterotrimeric RPA; experiment: EMSA of full-length heterotrimeric RPA binding to ssDNA; settings: 3Pc3 ssDNA, three independent experiments, read-out: IC50 for inhibition of full-length heterotrimeric RPA
Protocol: RPA Human full-length, untagged heterotrimeric RPA (RPA) was purified as previously described in [17].
as §1

RPA DBD-A/B [10] = target: RPA DBD-A/B (human, UniProt P27694 181-432); experiment: EMSA; ~50% of DNA bound at 125 nM protein; data not shown; DNA 12.5 nM; RPA/DBD-A/B EMSA: 12.5 nM DNA, protein preincubated with inhibitor 30 min at 37 C, then DNA 5 min at room temp; FP: 20 nM DNA, inhibitor diluted in H1 buffer (1)
Chain of RPA DBD-A/B (human, UniProt P27694 181-432) (P27694 181-432): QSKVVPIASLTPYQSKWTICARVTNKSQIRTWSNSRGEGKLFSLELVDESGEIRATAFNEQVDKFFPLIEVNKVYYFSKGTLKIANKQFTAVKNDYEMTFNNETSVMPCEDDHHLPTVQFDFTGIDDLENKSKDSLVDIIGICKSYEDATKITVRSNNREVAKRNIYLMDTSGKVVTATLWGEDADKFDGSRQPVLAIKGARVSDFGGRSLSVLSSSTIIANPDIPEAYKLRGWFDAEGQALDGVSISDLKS

T3 sequence (P27694 whole entry): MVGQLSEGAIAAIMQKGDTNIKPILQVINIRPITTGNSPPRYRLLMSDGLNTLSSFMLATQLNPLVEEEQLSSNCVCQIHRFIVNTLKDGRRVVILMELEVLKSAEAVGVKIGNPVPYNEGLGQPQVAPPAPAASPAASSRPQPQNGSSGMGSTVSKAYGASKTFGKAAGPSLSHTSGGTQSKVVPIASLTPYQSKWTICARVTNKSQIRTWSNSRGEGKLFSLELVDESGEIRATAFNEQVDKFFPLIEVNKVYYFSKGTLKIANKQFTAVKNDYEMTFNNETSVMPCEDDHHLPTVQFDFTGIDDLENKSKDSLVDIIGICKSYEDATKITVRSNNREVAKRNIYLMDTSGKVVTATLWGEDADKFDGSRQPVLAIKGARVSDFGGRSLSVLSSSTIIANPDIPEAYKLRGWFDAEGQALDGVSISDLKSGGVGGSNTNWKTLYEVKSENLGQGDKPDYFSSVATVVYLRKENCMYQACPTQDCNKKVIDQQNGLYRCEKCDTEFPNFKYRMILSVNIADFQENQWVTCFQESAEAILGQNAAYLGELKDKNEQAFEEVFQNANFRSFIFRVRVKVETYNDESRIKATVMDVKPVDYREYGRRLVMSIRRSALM
T3 sequence (P15927 whole entry partner): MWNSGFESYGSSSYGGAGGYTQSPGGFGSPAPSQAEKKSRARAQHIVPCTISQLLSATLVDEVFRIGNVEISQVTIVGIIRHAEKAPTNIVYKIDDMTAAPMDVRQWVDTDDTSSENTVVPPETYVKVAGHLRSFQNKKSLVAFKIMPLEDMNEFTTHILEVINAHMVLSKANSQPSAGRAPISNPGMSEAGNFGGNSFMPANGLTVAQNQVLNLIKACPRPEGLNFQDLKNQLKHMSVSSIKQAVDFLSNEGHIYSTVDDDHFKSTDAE
T3 sequence (P35244 whole entry partner): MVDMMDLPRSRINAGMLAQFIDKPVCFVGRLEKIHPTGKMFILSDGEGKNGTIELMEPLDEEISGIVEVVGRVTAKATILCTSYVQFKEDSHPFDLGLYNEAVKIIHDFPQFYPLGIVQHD
T4 sequence (P27694 181-432): as the sequence (P27694 181-432) above

Molecule: CCOc1ccc2cc(C3CC(c4ccc(Br)cc4)=NN3C(=O)CCC(=O)O)c(Cl)nc2c1 (stereo not drawn) [TDRL-505]
- synergy with etoposide [1]: synergize
- synergy with cisplatin ([1]; human lung cancer cell model): synergize
- decrease in EcSSB binding to ssDNA (E. coli SSB; 100 μM, highest concentration tested): ~ 20%
- effect on EcSSB binding to ssDNA (result in words) (E. coli SSB): ineffective
- IC50 [2]: 15.7 ± 1.6 µM
- inhibition of RPA DNA binding [3]: ~90%
- IC50 (RPA DBD-A/B [4]; EMSA, 125 nM DBD-A/B, 12.5 nM DNA, TDRL-505 10–100 μM, read-out: half-maximal inhibition of DBD-A/B DNA binding activity): ~40 µM
- half-maximal inhibition of DBD-A/B relative to intact heterotrimer (RPA DBD-A/B [4]; compared with heterotrimer value of ref 12): about twice
- inhibition at 100 µM (RPA DBD-A/B [4]; highest concentration tested (100 μM), read-out: inhibition of RPA DBD-A/B DNA binding): ~90%

Molecule: O=C1OC(=O)[C@H]2C3C=CC(CC3)[C@@H]12 [CheSS19]
- mode of inhibition of full-length RPA [5]: irreversibly inhibited
- cellular activity [6]: does not display any cellular activity
- effect on EcSSB binding to ssDNA (result in words) (E. coli SSB): unaffected
- mode of inhibition of DBD-A/B after dialysis (RPA DBD-A/B [7]): irreversible

Molecule: CC1(C)C2CCC1(C)C(OC(=O)CBr)C2 (stereo not drawn) [MCI13E]
- effect on EcSSB binding to ssDNA (result in words) (E. coli SSB): unaffected
- mode of inhibition of full-length RPA after dialysis [8]: inhibition was not reversed by dialysis
- IC50 [9]: 16.1 µM
- inhibition of DBD-A/B DNA binding (result in words) (RPA DBD-A/B [4]; EMSA): lack of inhibition

Molecule: CC1(C)C2CCC1(C)C(OC(=O)CI)C2 (stereo not drawn) [MCI13F]
- effect on EcSSB binding to ssDNA (result in words) (E. coli SSB): unaffected
- IC50 [9]: 10.1 µM
- inhibition of DBD-A/B DNA binding (result in words) (RPA DBD-A/B [4]; EMSA): lack of inhibition

Molecule: CTAGAAAGGGGGAAGAAAGGGAAGAGGCCAGAGA (ssDNA) [34-mer]
- apparent K (half saturation) (RPA DBD-A/B [10]): ~125 nM
